Results as given in ChEMBL document CHEMBL3774358 (Eur J Med Chem, 2016).

Assays:
[1] = target: Actin nucleation-promoting factor WASL (Rattus norvegicus, UniProt O08816); assay: Inhibition of full-length rat N-WASP-induced Arp2/3 activation by fluorescence assay
[2] = Inhibition of GFP-tagged Xenopus laevis kinesin-5 microtubule gliding velocity by fluorescence assay

Chain of Actin nucleation-promoting factor WASL (O08816 whole entry): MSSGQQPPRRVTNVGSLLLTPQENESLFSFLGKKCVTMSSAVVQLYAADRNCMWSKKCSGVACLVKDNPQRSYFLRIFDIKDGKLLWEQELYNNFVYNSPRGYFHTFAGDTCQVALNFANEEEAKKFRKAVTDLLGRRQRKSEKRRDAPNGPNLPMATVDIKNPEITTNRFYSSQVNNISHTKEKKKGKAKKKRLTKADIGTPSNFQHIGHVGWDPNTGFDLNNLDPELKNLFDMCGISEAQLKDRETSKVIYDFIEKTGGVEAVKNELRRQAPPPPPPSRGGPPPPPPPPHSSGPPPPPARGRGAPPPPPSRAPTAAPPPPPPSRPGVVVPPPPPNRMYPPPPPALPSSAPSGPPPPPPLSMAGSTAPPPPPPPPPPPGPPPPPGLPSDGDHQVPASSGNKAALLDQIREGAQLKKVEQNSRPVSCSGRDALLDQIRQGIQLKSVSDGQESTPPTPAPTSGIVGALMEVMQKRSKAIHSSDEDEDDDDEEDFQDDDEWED

IC50 [1] [µM] | IC50 [2] [µM] | Compound
3.44 |  | CN(C)C[C@@H](O)Cn1c2ccc(Br)cc2c2cc(Br)ccc21
 | 14 | CCOC(=O)C1=C(C)NC(=S)NC1c1cccc(O)c1 (stereo not drawn) [MONASTROL]
4.35 |  | CN(C)C[C@H](O)Cn1c2ccc(Br)cc2c2cc(Br)ccc21 [WISKOSTATIN]
